Laboratory results reported in ChEMBL document CHEMBL1781929, “Novel benzo[b]thiophene derivatives as new potential antidepressants with rapid onset of action” (J Med Chem, 2011).
Calls of active or inactive are those of the source. The calls are words filed in the database; no cut-off is given here.

Columns and labels:
[1] = target: T1, 5-hydroxytryptamine receptor 7 (Homo sapiens, UniProt P34969); experiment: Displacement of [3H]5-CT from human 5HT7 receptor expressed in HEK293 cells after 1 hr by liquid scintillation counting; format: cell-based
T1 sequence (P34969 whole entry): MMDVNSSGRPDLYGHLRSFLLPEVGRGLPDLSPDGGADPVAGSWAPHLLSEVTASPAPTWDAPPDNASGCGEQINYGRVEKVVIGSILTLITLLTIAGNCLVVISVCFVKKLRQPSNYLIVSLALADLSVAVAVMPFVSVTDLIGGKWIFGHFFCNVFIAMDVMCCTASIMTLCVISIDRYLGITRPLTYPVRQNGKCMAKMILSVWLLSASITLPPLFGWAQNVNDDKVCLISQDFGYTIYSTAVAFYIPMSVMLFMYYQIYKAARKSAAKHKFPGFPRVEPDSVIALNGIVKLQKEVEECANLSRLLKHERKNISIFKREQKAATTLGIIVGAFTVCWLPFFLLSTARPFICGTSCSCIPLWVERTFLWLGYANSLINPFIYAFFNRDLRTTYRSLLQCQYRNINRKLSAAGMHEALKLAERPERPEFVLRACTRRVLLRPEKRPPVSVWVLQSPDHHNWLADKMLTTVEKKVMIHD

[2] = target: Sodium-dependent serotonin transporter (Rattus norvegicus) (UniProt P31652); experiment: Displacement of [3H]5-HT from of SERT in rat midbrain homogenates at 1 uM after 5 mins by scintillation counting; format: tissue-based
Sequence of Sodium-dependent serotonin transporter (Rattus norvegicus) (P31652 whole entry): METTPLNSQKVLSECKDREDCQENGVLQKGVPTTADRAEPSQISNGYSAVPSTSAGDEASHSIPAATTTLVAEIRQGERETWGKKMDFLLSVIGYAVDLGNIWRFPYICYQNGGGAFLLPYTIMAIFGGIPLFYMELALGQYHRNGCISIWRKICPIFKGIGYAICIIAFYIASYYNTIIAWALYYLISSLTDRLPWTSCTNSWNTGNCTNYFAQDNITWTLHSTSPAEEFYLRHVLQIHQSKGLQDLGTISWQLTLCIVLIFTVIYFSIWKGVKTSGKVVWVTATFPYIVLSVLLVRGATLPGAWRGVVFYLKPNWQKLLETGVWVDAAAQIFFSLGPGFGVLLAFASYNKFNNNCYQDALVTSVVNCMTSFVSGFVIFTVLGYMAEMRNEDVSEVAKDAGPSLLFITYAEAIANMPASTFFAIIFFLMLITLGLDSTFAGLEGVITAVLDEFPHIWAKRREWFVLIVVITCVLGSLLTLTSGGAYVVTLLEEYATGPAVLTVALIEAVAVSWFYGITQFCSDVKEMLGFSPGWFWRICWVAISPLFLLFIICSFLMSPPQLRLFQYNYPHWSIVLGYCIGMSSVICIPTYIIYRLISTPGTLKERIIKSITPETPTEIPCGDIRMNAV

[3] = target: Sodium-dependent serotonin transporter (Rattus norvegicus) (UniProt P31652); experiment: Displacement of [3H]5-HT from of SERT in rat midbrain homogenates at 10 uM after 5 mins by scintillation counting; format: tissue-based
[4] = target: T1, 5-hydroxytryptamine receptor 7; experiment: Inverse agonist activity at human 5HT7 receptor expressed in HEK293 cells assessed as effect on cAMP production after 20 mins; format: functional, cell-based
[5] = target: Sodium-dependent serotonin transporter (Rattus norvegicus, UniProt P31652); experiment: Displacement of [3H]5-HT from of SERT in rat midbrain homogenates after 5 mins by scintillation counting; format: tissue-based
Sequence of Sodium-dependent serotonin transporter (P31652 whole entry): as above

[6] = tested on: Mus musculus; experiment: Antidepressant activity in albino mouse assessed as reduction of immobility time at 10 mg/kg, ip qd for 15 days by forced swimming test; format: functional, organism-based; design: dose 10 mg/kg
[7] = tested on: Mus musculus; experiment: Toxicity in albino mouse assessed as increase in locomotor activity at 10 mg/kg, ip; format: organism-based; design: dose 10 mg/kg, route intraperitoneal; details: in vivo
[8] = target: T2, 5-hydroxytryptamine receptor 1A (Homo sapiens, UniProt P08908); experiment: Binding affinity to 5HT1A receptor
T2 sequence (P08908 whole entry): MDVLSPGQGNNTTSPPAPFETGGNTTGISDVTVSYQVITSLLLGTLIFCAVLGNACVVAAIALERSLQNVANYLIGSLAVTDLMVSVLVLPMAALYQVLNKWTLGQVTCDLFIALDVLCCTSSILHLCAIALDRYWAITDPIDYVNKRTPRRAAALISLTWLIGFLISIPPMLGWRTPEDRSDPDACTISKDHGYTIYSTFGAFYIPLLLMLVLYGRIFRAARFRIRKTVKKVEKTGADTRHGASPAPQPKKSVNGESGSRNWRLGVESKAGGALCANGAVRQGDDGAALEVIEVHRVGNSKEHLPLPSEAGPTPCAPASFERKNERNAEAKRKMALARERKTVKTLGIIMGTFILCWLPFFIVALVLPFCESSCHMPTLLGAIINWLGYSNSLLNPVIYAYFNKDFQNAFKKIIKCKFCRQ

[9] = tested on: Mus musculus; experiment: Antidepressant activity in albino mouse assessed as reduction of immobility time at 10 mg/kg, ip measured for 4 mins by forced swimming test; format: functional, organism-based; design: dose 10 mg/kg
[10] = target: T1, 5-hydroxytryptamine receptor 7; experiment: Antagonist activity at human 5HT7 receptor expressed in HEK293 cells assessed as inhibition of serotonin-induced cAMP production after 20 mins; format: functional, cell-based
[11] = tested on: Mus musculus; experiment: Antidepressant activity in albino mouse assessed as reduction of immobility time at 10 to 20 mg/kg, ip measured up to 4 mins by forced swimming test; format: functional, organism-based
[12] = tested on: Mus musculus; experiment: Antidepressant activity in albino mouse assessed as reduction of immobility time at 20 mg/kg, ip qd for 15 days by forced swimming test; format: functional, organism-based; design: dose 20 mg/kg
[13] = target: T1, 5-hydroxytryptamine receptor 7; experiment: Partial agonist activity at human 5HT7 receptor expressed in HEK293 cells assessed as effect on cAMP production after 20 mins; format: functional, cell-based
[14] = target: T1, 5-hydroxytryptamine receptor 7; experiment: Partial antagonist activity at human 5HT7 receptor expressed in HEK293 cells assessed as inhibition of serotonin-induced cAMP production after 20 mins; format: functional, cell-based

SMILES	Ki [1] [µM]	inhibition [2] [%]	inhibition [3] [%]	further results
N#Cc1ccc(N2CC[C@H](NCCC(=O)c3csc4ccccc34)C2)cc1	> 100	0	45.6	–
O=C(CCN1CCN(c2ccc([N+](=O)[O-])cc2)CC1)c1csc2ccc(F)cc12	91.2	0	16.3	–
N#Cc1ccc(N2CCC(NCCC(O)c3csc4ccccc34)CC2)cc1 (stereo unspecified)	1.66	53.1	80.4	Activity [4]: Active; IC50 [5]: 3.66 µM; Activity [6]: Active; Activity [7]: Non-toxic; Ki [8]: 0.158 µM
N#Cc1ccc(N2CCCN(CCC(O)c3csc4ccccc34)CC2)cc1 (stereo unspecified)	0.263	19.7	36.7	Activity [4]: Active; IC50 [5]: 57.8 µM; Activity [9]: Active; Activity [6]: Active; Activity [7]: Non-toxic; Ki [8]: 3.16 µM; Activity [10]: Active
O=C(CCN[C@H]1CCN(c2ccc([N+](=O)[O-])cc2)C1)c1csc2ccccc12	> 100	0	36.6	–
O=C(CCN1CCN(c2ccc([N+](=O)[O-])cc2)CC1)c1csc2ccccc12	> 100	2.1	33.2	–
Nc1ccc(N2CCN(CCC(=O)c3csc4ccccc34)CC2)cc1	14.1	–	–	–
O=[N+]([O-])c1ccc(N2CCC(NCCC(O)c3csc4ccccc34)C2)cc1 (single isomer, unassigned)	> 100	28.1	49.2	–
O=C(CCN1CCCN(c2ccc([N+](=O)[O-])cc2C(F)(F)F)CC1)c1csc2ccccc12	> 100	–	–	–
CNCCC(Oc1ccc(C(F)(F)F)cc1)c1ccccc1 (stereo unspecified)	–	–	–	Activity [11]: inactive; Activity [12]: Active
O=[N+]([O-])c1ccc(N2CCCN(CCC(O)c3csc4ccccc34)CC2)c(C(F)(F)F)c1 (stereo unspecified)	8.71	0	36	Activity [13]: Active
N#Cc1ccc(N2CCCN(CCC(=O)c3csc4ccccc34)CC2)cc1	15.1	1.2	63.1	–
O=C(CCN1CCCN(c2cnc3ccccc3n2)CC1)c1csc2ccccc12	9.55	23.8	58	–
OC(CCN1CCC(N2CCOCC2)CC1)c1csc2ccccc12 (stereo unspecified)	27.5	2.2	63.6	–
O=C(CCN[C@@H]1CCN(c2ccc([N+](=O)[O-])cc2)C1)c1csc2ccccc12	> 100	9	45.4	–
N#Cc1ccc(N2CCN(CCC(O)c3csc4ccccc34)CC2)cc1 (stereo unspecified)	12.6	43.5	57.7	Activity [4]: Active; Activity [10]: Active
O=C(CCNC1CCN(c2ccc([N+](=O)[O-])cc2C(F)(F)F)CC1)c1csc2ccccc12	9.12	26.9	62.8	Activity [13]: Active; Activity [10]: Active
O=C(CCN1CCC(N2CCOCC2)CC1)c1csc2ccccc12	53.7	11.1	30.2	–
O=C(CCN[C@H]1CCN(c2ccc([N+](=O)[O-])cc2C(F)(F)F)C1)c1csc2ccccc12	> 100	28.4	97.9	IC50 [5]: 7.02 µM; Activity [6]: Active; Activity [7]: Non-toxic; Ki [8]: 0.0501 µM
O=C(CCNC1CCN(c2ccc([N+](=O)[O-])cc2)CC1)c1csc2ccc(F)cc12	4.79	3.1	35	Activity [14]: Active; Activity [10]: Active
N#Cc1ccc(N2CCN(CCC(=O)c3csc4ccccc34)CC2)cc1	> 100	5.4	38.2	–
N#Cc1ccc(N2CCC(NCCC(=O)c3csc4ccccc34)CC2)cc1	7.24	–	–	Activity [13]: Active
O=C(CCN1CC[C@@H](Nc2ccc([N+](=O)[O-])cc2)C1)c1csc2ccccc12	> 100	17.9	76.5	–
